Reference: patent US20110059909A1, “METHODS FOR TREATING INFLAMMATORY DISORDERS” (priority 2004, published 2011)

What was measured:
LacCer synthase (GalT-2) = target: T1, LacCer synthase (GalT-2) (Rattus norvegicus, UniProt O88419); assay: Measurement of [14C]LacCer synthesis in primary astrocytes (HPTLC); format: cell-based
T1 construct: using cell lysates derived from cells stimulated with LPS/IFNγ; endogenous in cells; host or cells: rat primary astrocytes
T1 sequence (O88419 1-382): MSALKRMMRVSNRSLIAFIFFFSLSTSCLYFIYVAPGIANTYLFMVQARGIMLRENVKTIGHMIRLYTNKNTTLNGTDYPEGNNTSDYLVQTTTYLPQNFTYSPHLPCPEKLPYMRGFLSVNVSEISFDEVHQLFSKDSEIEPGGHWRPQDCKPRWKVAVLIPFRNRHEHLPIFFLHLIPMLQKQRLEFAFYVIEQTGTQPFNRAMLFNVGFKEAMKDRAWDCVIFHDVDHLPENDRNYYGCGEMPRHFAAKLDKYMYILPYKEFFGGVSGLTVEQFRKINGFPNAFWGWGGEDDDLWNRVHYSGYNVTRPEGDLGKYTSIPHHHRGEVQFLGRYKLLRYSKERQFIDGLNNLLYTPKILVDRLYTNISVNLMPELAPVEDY
Procedure: Cultured cells were incubated in growth medium containing [^14C]galactose (5 μCi/ml) for 24 h as described previously. The medium was removed, and the cell monolayer was washed with sterile PBS. After the stimulation with LPS/IFNγ (1 μg/ml; 10 U/ml) for various durations, cells were then harvested and washed with ice cold PBS and lysed by sonication. 200 μg of protein was used for extraction of lipids using Chloroform:Methanol:HCl (100:100:1). The organic phase was dried under nitrogen. Glycosphingolipids were resolved by high performance thin layer chromatography using chloroform/methanol/0.25% KCl (70:30:4, v/v/v) as the developing solvent. The gel area corresponding to LacCer was scraped, and radioactivity was measured employing “liquiscint” (NEN Life Science Products) as a scintillating fluid.

small GTPase Ras = assay: Quantification of Ras activation (GST-Raf-1 RBD pull-down) in primary astrocytes; format: cell-based, rat
Procedure: After stimulation, primary astrocytes in 6-well plates were washed with ice cold PBS and lysed in membrane lysis buffer (MLB; 0.5 ml of 25 mM HEPES, pH 7.5, 150 mM NaCl, 1% Igepal CA-630, 0.25% sodium deoxycholate, 10% glycerol, 10 mM MgCl2, 1 mM EDTA, 25 mM NaF, 1 mM of sodium orthovanadate, and EDTA free Complete™ protease inhibitor cocktail). After centrifugation (5,000×g) at 4° C. for 5 min, supernatant was used for Ras activation assay. One hundred μg of supernatant was used for binding with agarose conjugated Ras-binding domain (RBD) of Raf-1 which was expressed in BL21 (Invitrogen), Escherichia coli strain, transformed by pGEX-2T-GST-RBD in the presence of 0.1 mM of IPTG as described previously (Herrmann et al., 1995). The binding reaction was performed at 4° C. for 30 min in MLB. Following washing with MLB three times, Ras-RBD complex were denatured by adding of 2×SDS sample buffer. Ras protein was identified by western blot analysis with Ras antibodies from Upstate Biotechnology.

NF-κB = NF-κB DNA binding, electrophoretic mobility shift assay; format: cell-based, rat
Procedure: Nuclear extracts from cells (1×10^7 cells) were prepared using a previously published method (Dignam et al., 1983) with slight modifications. Cells were harvested, washed twice with ice-cold TBS, and lysed in 400 μl of buffer A containing 10 mM KCl, 2 mM MgCl2, 0.5 mM dithiothreitol, protease inhibitor cocktail (Sigma), and 0.1% Nonidet P-40 in 10 mM HEPES, pH 7.9 for 10 min on ice. Following centrifugation at 5,000×g for 10 min, the pelleted nuclei were washed with buffer A without Nonidet P-40, and resuspended in 40 μl of buffer B containing 25% (v/v) glycerol, 0.42M NaCl, 1.5 mM MgCl2, 0.2 mM EDTA, 0.5 mM dithiothreitol, and Complete™ protease inhibitor cocktail (Roche) in 20 mM HEPES, pH 7.9 for 30 min on ice. The lysates were centrifuged at 15,000×g for 15 min and the supernatants containing the nuclear proteins were stored at −70° C. until use. Ten μg of nuclear proteins was used for the electrophoretic mobility shift assay for detection of NF-κB DNA binding activities. DNA-protein binding reactions were carried out at room temperature for 20 min in 10 mM Trizma base (pH 7.9), 50 mM NaCl, 5 mM MgCl2, 1 mM EDTA, 1 mM dithiothreitol, 1 μg poly (dI-dC), 5% (v/v) glycerol, and approximately 0.3 pmol of NF-κB probe (Santa Cruz Biotech) labeled with DIG-ddUTP using terminal deoxynucleotidyl transferase (Roche). […]

Compound	[14C]LacCer biosynthesis following LPS/IFNγ-stimulation (LacCer synthase (GalT-2))	[14C]LacCer synthesis upon TNFα-stimulation (LacCer synthase (GalT-2); TNFα 1 ng/ml)	LPS/IFNγ-mediated activation of Ras (small GTPase Ras; PDMP 50 μM 0.5 h, LPS/IFNγ 5 min)	TNFα-induced Ras activation (small GTPase Ras; pretreated 0.5 h, TNFα)	NF-κB DNA binding activity (NF-κB; increasing doses of PDMP, LPS/IFNγ 45 min)	Reversal of LY-mediated inhibition of TNFα-mediated Ras activation (small GTPase Ras; LY 30 μM plus LacCer)	Reversal of PDMP-mediated reduction of LPS/IFNγ-mediated Ras activation (small GTPase Ras; LacCer plus PDMP 50 μM, LPS/IFNγ 5 min)	Reversal of PDMP-mediated inhibition of TNFα-induced Ras activation (small GTPase Ras; PDMP 25 μM plus LacCer)	Reversal of DMS-mediated inhibition of Ras activation (small GTPase Ras; exogenous lipid)	Reversal of PDMP-mediated inhibition of NF-κB DNA binding activity (NF-κB; exogenous LacCer)
AS GalT-2 oligonucleotides: 20-mer antisense oligonucleotide 5′-CGCTTGAGCGCAGACATCTT-3′, SEQ ID NO:1, against rat lactosylceramide synthase (GalT-2) (antisense CGCTTGAGCGCAGACATCTT; chemistry not given here)	diminished synthesis	diminished synthesis								
CCCCCCCCCC(=O)NC(CN1CCOCC1)C(O)c1ccccc1.Cl [PDMP, D-threo-1-Phenyl-2-decanoylamino-3-morpholino-1-propanol.HCl]	inhibited this increase		reduced	attenuated	inhibited					
Lactosylceramide [LacCer]						bypassed	fully reversed	fully reversed	reversed	reversed
